Test results from PubChem BioAssay (NCI).
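Values below derive from 48-hour exposures of cells grown in 96-well plates, with endpoints linearly interpolated between the two concentrations bracketing the appropriate inhibition level. GI50 is the concentration that inhibits growth by half. TGI is the concentration that stops growth completely.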

What was measured:
Assay in all cases: growth of human tumour cells (NCI), 48 h
[1] = system: ACHN renal
[2] = system: HCT-116 colon
[3] = system: OVCAR-3 ovarian
[4] = system: SN12C renal
[5] = system: SK-MEL-5 melanoma
[6] = system: MOLT-4 leukemia
[7] = system: OVCAR-4 ovarian
[8] = system: RPMI-8226 leukemia
[9] = system: IGROV1 ovarian
[10] = system: DMS 114 small cell lung

| Compound | GI50 [1] [µM] | TGI [1] [µM] | GI50 [2] [µM] | TGI [2] [µM] | GI50 [3] [µM] | TGI [3] [µM] | GI50 [4] [µM] | TGI [4] [µM] | GI50 [5] [µM] | TGI [5] [µM] | GI50 [6] [µM] | TGI [6] [µM] | GI50 [7] [µM] | TGI [7] [µM] | GI50 [8] [µM] | TGI [8] [µM] | GI50 [9] [µM] | TGI [9] [µM] | TGI [10] [µM] |
| --- | --- | --- | --- | --- | --- | --- | --- | --- | --- | --- | --- | --- | --- | --- | --- | --- | --- | --- | --- |
| C=CCc1c2c(c(OC)c3ccoc13)C(=O)/C(=C/c1ccccc1OC)O2 | 4.33 | > 100 | 3.29 | > 100 | 3.28 | 12.2 | 4.85 | > 100 | 3.91 | 92 | 3.52 | > 100 | 3.34 | > 100 | 3.51 | > 100 | 5.27 | > 100 |  |
| COc1ccc2c(c1)C(O)(C(F)(F)F)c1cc(C(=O)C(F)(F)F)c3ccccc3c1N2 (configuration not stated) |  | 18.1 |  |  |  | 29.4 |  |  |  | 26.6 |  | 33.8 |  | 22.4 |  |  |  | 27.9 | 22.1 |
| CN(CCCN)CCCNc1nc2ccccc2c2[nH]c3ccccc3c12 | 0.409 | 4.45 | 0.173 | 1.2 | 0.359 | 1.35 | 0.119 | 0.606 | 0.747 | 1.98 | 0.186 | 1.24 | 0.201 | 0.614 | 0.207 | 0.947 | 0.329 | 1.21 |  |
| CCN1C(=O)N(CC)C2C1NN=c1s/c(=C\c3cccnc3)c(=O)n12 (configuration not stated) | 0.694 | > 100 | 0.478 | > 100 | 0.359 | 8.53 | 0.616 | > 100 | 0.344 | 12.6 | 0.596 | > 100 | 5.72 | > 100 | 0.41 | > 100 | 0.843 | > 100 |  |
| N#Cc1cnc2cc(OC[C@H](O)CO)c(NC(=O)CC3CSSC3)cc2c1Nc1ccc(OCc2cccc(F)c2)c(Cl)c1 | 1.73 | 5.42 | 0.0977 | 0.208 | 0.514 | 1.24 | 0.35 | 1.1 | 0.841 | 1.59 | 0.0931 | 0.209 | 0.619 | 1.57 | 1.09 | 2.49 | 0.446 | 1.39 |  |
| Cc1occc1C(=S)Nc1ccc(Cl)c(COC(C)(C)C)c1 |  | 31.1 |  | 32.1 |  | 30 |  | 29.2 |  | 33.4 |  | 47.9 |  | 33.1 |  | 50.5 |  | 31 |  |
| Cc1c(C(=O)/C=C/c2csc3ccccc23)[n+](=O)c2ccccc2n1[O-] | 1.48 | 2.8 | 1.37 | 2.65 | 1.32 | 2.62 | 2 | 4.72 | 1.59 | 2.94 | 2.71 | 7 | 1.98 | 4.83 | 1.78 | 4.91 | 1.34 | 3.04 |  |
| CN(C)S(=O)(=O)c1ccc(NC(=O)COC(=O)c2ccc(S(=O)(=O)N3CCCCC3)cc2)cc1 | > 100 | > 100 | > 100 | > 100 | > 100 | > 100 | > 100 | > 100 | > 100 | > 100 | > 100 | > 100 | > 100 | > 100 | > 100 | > 100 | > 100 | > 100 |  |
| Cc1cccc(NC(=O)CC(=O)N2N=C(N(CCC#N)c3ccc(Cl)cc3)CC2c2ccccc2)c1 (configuration not stated) |  | > 100 |  | > 100 |  | > 100 |  | > 100 |  | > 100 |  | > 100 |  | > 100 |  |  |  | > 100 | > 100 |
| ClCCn1c(CCl)nc2ccc(Cl)cc21 | 1.35 | 2.72 | 0.272 | 0.731 | 1.87 | 3.45 | 0.257 | 0.708 | 0.176 | 0.329 | 0.305 | 0.81 | 1.34 | 4.71 | 1.42 | 3.87 | 0.213 | 0.476 |  |
| COc1cccc(/C=C/C(=O)c2cccc(Nc3nc(Nc4ccccc4)nc(Nc4ccccc4)n3)c2)c1 | 67.3 | > 100 | 1.42 | 2.93 | 9.16 | 33.5 | 48.5 | > 100 | 13 | > 77.1 | 3.86 | 26.3 | 19.5 | > 100 | 1.78 | 6.49 | 5.47 | 33.2 |  |
| CN1CCN(CCc2cccc(C(=O)c3cnn(-c4ccc(F)cc4)c3N)c2)CC1 | > 25 | > 25 | > 25 | > 25 | > 25 | > 25 | > 25 | > 25 | > 25 | > 25 | > 25 | > 25 | > 25 | > 25 | > 25 | > 25 | > 25 | > 25 |  |
| CCN(CC)c1ccc(C(=C2C=CC(=[N+](CC)Cc3cccc(S(=O)(=O)O)c3)C=C2)c2ccc(N(CC)Cc3cccc(S(=O)(=O)O)c3)cc2)cc1 | 9.48 | > 68.5 | 3.18 | 19.7 | 5.21 | 37.4 | 3.24 | > 100 | 10.1 | 24.1 | 11.1 | > 89.7 | 8.71 | > 100 | 3.32 | > 51.1 | 13.3 | > 100 |  |
| COC(=O)[C@@H](C)C[C@H](Cc1ccccc1)NC(=O)c1nc([C@@H](C[C@H](C(C)C)N(C)C(=O)[C@@H](NC(=O)[C@H]2CCCCN2C)C(C)C)OC(C)=O)sc1C | 0.00585 | > 16.7 | < 0.00167 | > 9.5 | < 0.00167 |  | < 0.00167 | > 16.7 | < 0.00167 | 0.0565 | 0.00225 | > 16.7 | 0.0179 | > 16.7 | < 0.00167 | > 11.4 | 0.0017 | > 16.7 |  |
